Test results published in patent US20240391931A1 (Bristol-Myers Squibb Company, priority 2021, published 2024).

Columns and labels:
[1] = target: HER2YVMA (Homo sapiens, UniProt P04626, INS775YVMA); test: Enzymatic assay HER2YVMA (method b); type: biochemical; set-up: purchased Viva biotech, Shanghai, China custom purification; conditions: [HER2YVMA]=5 nM, [ATP]=25 μM, [Peptide 22]=1 μM
Outline: (§1)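 Microfluidic mobility-shift kinase assay with Peptide 22 (1 μM) in HEPES pH 7.5, MnCl2, MgCl2, Tween 20, TCEP. HER2 WT 12.5 nM and HER2 YVMA 5 nM each used 25 μM ATP; EGFR WT 2 nM used 1 mM ATP. IC50 came from initial-velocity (0–3600 s) percent inhibition, fitted to a variable-slope model.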

[2] = target: T1, HER2 wildtype (WT) protein (Homo sapiens, UniProt P04626); test: HER2 signaling (pHER2 Tyr1248/total HER2 MSD) in BT474 cells; type: cell-based; conditions: 1.5 hr compound, 1% FBS
T1 construct: BT474 and N87 cell lines which endogenously overexpress the HER2 wildtype (WT) protein; endogenous in cells; host or cells: BT474, N87
Outline: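 BT474, N87 (HER2 WT) and NCI-H1781 (HER2 G776delinsVC) cells were treated for 1.5 h at 37° C in 1% FBS medium with compound at 0.0005–1.1 μM. pHER2 Tyr1248 was measured by MSD on whole-cell lysates and normalized to total HER2 as % DMSO. EC50 came from a variable-slope sigmoidal fit.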

[3] = target: T2, EGFR WT (Homo sapiens, UniProt P00533); test: Enzymatic assay EGFR WT (method c); type: biochemical; conditions: [EGFR WT]=2 nM, [ATP]=1 mM, [Peptide 22]=1 μM
T2 construct: purchased Thermo Fisher, Carlsbad, CA ERBB1 PR7295B
Outline: as §1

[4] = target: T3, HER2 WT (Homo sapiens, UniProt P04626); test: Enzymatic assay HER2 WT (method a); type: biochemical; conditions: [HER2 WT]=12.5 nM, [ATP]=25 μM, [Peptide 22]=1 μM
T3 construct: purchased ProQinase, Freiburg, Germany ERBB2 0108-0000-1
Outline: as §1

Chain of HER2YVMA (P04626 with tags, fused parts or gaps INS775YVMA): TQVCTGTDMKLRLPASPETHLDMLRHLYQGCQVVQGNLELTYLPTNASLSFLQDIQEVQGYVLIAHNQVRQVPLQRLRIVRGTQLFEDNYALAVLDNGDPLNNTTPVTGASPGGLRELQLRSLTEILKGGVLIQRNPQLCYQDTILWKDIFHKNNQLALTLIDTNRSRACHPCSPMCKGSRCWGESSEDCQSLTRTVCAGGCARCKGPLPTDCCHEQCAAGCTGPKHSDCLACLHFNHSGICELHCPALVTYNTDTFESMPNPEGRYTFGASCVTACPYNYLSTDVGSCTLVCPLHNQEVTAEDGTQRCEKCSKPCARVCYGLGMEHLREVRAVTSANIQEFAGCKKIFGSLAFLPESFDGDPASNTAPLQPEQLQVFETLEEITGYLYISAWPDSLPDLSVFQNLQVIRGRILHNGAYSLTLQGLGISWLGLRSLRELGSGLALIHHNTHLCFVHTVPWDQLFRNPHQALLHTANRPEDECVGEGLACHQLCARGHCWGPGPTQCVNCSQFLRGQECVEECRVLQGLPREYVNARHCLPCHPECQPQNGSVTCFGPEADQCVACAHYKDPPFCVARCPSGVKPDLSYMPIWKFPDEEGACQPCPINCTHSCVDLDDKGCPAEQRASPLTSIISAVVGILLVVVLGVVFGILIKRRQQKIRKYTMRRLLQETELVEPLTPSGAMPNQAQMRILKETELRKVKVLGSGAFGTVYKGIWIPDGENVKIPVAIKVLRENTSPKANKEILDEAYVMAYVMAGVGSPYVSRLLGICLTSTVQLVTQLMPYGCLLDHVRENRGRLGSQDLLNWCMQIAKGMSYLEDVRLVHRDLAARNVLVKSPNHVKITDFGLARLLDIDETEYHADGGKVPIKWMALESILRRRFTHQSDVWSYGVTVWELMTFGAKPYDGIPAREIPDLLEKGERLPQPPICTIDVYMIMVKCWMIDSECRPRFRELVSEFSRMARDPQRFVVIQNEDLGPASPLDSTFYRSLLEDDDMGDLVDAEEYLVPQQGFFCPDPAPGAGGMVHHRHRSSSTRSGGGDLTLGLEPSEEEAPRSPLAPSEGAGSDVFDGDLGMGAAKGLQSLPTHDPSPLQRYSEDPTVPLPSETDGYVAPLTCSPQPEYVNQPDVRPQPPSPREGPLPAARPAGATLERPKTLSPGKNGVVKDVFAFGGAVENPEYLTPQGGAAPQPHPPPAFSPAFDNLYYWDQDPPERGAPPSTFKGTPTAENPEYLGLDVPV
T3 sequence (P04626 23-1255): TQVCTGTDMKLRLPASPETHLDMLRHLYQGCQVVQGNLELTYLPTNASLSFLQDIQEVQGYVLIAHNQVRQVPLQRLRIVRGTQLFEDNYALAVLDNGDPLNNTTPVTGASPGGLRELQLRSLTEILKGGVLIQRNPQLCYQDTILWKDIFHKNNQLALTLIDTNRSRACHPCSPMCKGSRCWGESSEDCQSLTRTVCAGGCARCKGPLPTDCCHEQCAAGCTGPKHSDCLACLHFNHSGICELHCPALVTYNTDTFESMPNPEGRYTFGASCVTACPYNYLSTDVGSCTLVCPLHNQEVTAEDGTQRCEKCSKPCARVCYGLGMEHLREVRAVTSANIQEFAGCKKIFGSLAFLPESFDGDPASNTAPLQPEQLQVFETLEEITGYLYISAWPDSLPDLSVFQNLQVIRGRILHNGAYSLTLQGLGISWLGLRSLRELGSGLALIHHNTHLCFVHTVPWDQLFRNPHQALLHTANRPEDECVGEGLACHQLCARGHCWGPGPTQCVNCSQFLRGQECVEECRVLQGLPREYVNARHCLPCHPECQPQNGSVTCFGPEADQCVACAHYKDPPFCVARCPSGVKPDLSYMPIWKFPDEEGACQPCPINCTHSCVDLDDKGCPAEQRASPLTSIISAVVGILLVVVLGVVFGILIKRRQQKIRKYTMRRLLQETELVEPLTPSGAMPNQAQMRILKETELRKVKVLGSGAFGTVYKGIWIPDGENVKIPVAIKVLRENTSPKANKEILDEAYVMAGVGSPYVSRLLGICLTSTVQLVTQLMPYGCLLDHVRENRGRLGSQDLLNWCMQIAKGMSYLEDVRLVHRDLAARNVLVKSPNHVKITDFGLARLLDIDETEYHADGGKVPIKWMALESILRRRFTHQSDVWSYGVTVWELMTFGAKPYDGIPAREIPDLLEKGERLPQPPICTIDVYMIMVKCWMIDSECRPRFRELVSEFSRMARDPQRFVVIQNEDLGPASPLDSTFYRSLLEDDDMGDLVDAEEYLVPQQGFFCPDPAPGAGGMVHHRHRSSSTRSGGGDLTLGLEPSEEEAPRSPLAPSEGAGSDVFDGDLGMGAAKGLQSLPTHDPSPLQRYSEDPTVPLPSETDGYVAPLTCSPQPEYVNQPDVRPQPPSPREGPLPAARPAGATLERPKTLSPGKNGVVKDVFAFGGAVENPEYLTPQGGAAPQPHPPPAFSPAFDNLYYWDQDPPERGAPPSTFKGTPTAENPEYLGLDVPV
T1 sequence (P04626 23-1255): as above
T2 sequence (P00533 25-1210): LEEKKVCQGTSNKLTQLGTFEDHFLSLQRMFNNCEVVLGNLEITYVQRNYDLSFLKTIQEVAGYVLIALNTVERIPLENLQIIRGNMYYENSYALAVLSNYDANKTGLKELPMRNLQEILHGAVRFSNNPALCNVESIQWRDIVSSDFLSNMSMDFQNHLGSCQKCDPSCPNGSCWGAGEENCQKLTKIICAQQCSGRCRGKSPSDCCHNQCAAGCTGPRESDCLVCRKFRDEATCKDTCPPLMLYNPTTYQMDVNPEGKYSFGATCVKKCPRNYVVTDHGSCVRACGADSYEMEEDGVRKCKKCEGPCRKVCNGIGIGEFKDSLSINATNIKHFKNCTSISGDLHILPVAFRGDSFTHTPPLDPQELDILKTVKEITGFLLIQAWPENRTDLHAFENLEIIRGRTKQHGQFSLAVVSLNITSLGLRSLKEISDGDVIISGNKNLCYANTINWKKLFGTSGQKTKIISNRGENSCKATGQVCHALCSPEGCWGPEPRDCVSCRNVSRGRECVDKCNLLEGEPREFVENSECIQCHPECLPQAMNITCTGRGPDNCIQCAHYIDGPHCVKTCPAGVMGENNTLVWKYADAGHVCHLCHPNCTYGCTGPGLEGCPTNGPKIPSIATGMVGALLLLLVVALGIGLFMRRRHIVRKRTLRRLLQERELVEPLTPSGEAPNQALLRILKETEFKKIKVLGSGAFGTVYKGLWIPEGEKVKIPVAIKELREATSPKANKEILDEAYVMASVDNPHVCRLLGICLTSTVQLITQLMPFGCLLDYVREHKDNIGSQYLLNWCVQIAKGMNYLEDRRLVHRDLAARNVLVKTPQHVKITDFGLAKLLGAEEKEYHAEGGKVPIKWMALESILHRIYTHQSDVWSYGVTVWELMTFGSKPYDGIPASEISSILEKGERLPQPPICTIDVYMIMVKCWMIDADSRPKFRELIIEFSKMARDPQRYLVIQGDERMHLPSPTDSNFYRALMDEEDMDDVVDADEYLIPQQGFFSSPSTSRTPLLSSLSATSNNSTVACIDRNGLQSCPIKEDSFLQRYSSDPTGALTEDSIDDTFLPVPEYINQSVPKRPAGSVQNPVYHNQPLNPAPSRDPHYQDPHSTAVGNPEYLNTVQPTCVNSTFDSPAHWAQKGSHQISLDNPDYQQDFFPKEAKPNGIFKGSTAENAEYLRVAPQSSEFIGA

IC50 [1] [nM]	EC50 [2] [nM]	IC50 [3] [µM]	IC50 [4] [nM]	SMILES
100 to 1000	< 100	> 10	< 100	Cc1ccc(Oc2ccc(Nc3ncnc4sc5c(c34)CCN(C(=O)/C=C/CN3CCO[C@@H](CO)C3)C5)cc2C)cn1 [Compound 144]
< 100	< 100	> 10	< 100	Cc1ccc(Oc2ccc(Nc3ncnc4sc5c(c34)CCN(C(=O)/C=C/CN3CC(F)(CO)C3)C5)cc2C)cn1 [Compound 151]
< 100	< 100	> 10	< 100	COc1ccc(Oc2ccc(Nc3ncnc4sc5c(c34)C(C)CN(C(=O)/C=C/CN(C)C)C5)cc2C)cn1 (centres unmarked) [Compound 152, (E)-4-(dimethylamino)-1-(4-((4-((6-methoxypyridin-3-yl)oxy)-3-methylphenyl)amino)-5-methyl-5,8-dihydropyrido[4′,3′:4,5]thieno[2,3-d]pyrimidin-7(6H)-yl)but-2-en-1-one]
< 100	< 100	> 10	< 100	Cc1ccc(Oc2ccc(Nc3ncnc4sc5c(c34)CCN(C(=O)/C=C/CN3CCC[C@H](CO)C3)C5)cc2C)cn1 [Compound 155]
< 100	< 100	> 10	< 100	COc1ccc(Oc2ccc(Nc3ncnc4sc5c(c34)CCN(C(=O)/C=C/CN(C)C(C)(C)C)C5)cc2C)cn1 [Compound 163]
100 to 1000	< 100	> 10	< 100	Cc1cc(Nc2ncnc3sc4c(c23)CCN(C(=O)/C=C/CN(C)C)CC4)ccc1Oc1ccn2ncnc2c1 [Compound 168]
< 100	< 100	> 10	< 100	Cc1ccc(Oc2ccc(Nc3ncnc4sc5c(c34)C(C)CN(C(=O)/C=C/CN(C)C)C5)cc2Cl)cn1 (centres unmarked) [Compound 171, (E)-1-(4-((3-Chloro-4-((6-methylpyridin-3-yl)oxy)phenyl)amino)-5-methyl-5,6-dihydropyrido[4′,3′:4,5]thieno[2,3-d]pyrimidin-7(8H)-yl)-4-(dimethylamino)but-2-en-1-one]
100 to 1000	< 100	> 10	100 to 1000	COc1ccc(Oc2ccc(Nc3ncnc4sc5c(c34)CCN(C(=O)/C=C/CN(C)C)CC5)cc2C)cn1 [Compound 173, (E)-4-(Dimethylamino)-1-(4-((4-((6-methoxypyridin-3-yl)oxy)-3-methylphenyl)amino)-8,9-dihydro-5H-pyrimido[5′,4′:4,5]thieno[2,3-d]azepin-7(6H)-yl)but-2-en-1-one]

The remaining lines, values behind:

SMILES	IC50 [1] [nM]	EC50 [2] [nM]	IC50 [3] [µM]	IC50 [4] [nM]
Cc1ccc(Oc2ccc(Nc3ncnc4sc5c(c34)CCN(C(=O)/C=C/CN3CCCC(F)(CO)C3)C5)cc2C)cn1 (centres unmarked) [Compound 150]	< 100	< 100	1 to 10	< 100
Cc1ccc(Oc2ccc(Nc3ncnc4sc5c(c34)CN(C(=O)/C=C/CN(C)C)C5C)cc2C)cn1 (centres unmarked) [Compound 153, (E)-4-(dimethylamino)-1-(7-methyl-4-((3-methyl-4-((6-methylpyridin-3-yl)oxy)phenyl)amino)-5,7-dihydro-6H-pyrrolo[3′,4′:4,5]thieno[2,3-d]pyrimidin-6-yl)but-2-en-1-one]	< 100	< 100	> 10	100 to 1000
Cc1ccc(Oc2ccc(Nc3ncnc4sc5c(c34)CCN(C(=O)/C=C/CN3CCC[C@@H](CO)C3)C5)cc2C)cn1 [Compound 154]	< 100	< 100	> 10	< 100
Cc1cc(Nc2ncnc3sc4c(c23)CCN(C(=O)/C=C/CN(C)C)C4)ccc1Oc1ccc(N(C)C)nc1 [Compound 158, (E)-4-(dimethylamino)-1-(4-((4-((6-(dimethylamino)pyridin-3-yl)oxy)-3-methylphenyl)amino)-5,8-dihydropyrido[4′,3′:4,5]thieno[2,3-d]pyrimidin-7(6H)-yl)but-2-en-1-one]	< 100	< 100	1 to 10	< 100
COc1ccc(Oc2ccc(Nc3ncnc4sc5c(c34)CCN(C(=O)/C=C/CN3CCOCC3)C5)cc2C)cn1 [Compound 164]	100 to 1000	< 100	> 10	100 to 1000
Cc1ccc(Oc2ccc(Nc3ncnc4sc5c(c34)CCN(C(=O)/C=C/CN(C)C)CC5)cc2Cl)cn1 [Compound 167, (E)-1-(4-((3-Chloro-4-((6-methylpyridin-3-yl)oxy)phenyl)amino)-8,9-dihydro-5H-pyrimido[5′,4′:4,5]thieno[2,3-d]azepin-7(6H)-yl)-4-(dimethylamino)but-2-en-1-one]	100 to 1000	< 100	> 10	100 to 1000
Cc1cc(Nc2ncnc3sc4c(c23)CCN(C(=O)/C=C/CN(C)C)CC4)ccc1Oc1ccn2ccnc2c1 [Compound 172, (E)-4-(Dimethylamino)-1-(4-((4-(imidazo[1,2-a]pyridin-7-yloxy)-3-methylphenyl)amino)-8,9-dihydro-5H-pyrimido[5′,4′:4,5]thieno[2,3-d]azepin-7(6H)-yl)but-2-en-1-one]	< 100	< 100	> 10	< 100
Cc1ccc(Oc2ccc(Nc3ncnc4sc5c(c34)C(C)CN(C(=O)/C=C/CN3CCOCC3)C5)cc2C)cn1 (centres unmarked) [Compound 174, (E)-1-(5-Methyl-4-((3-methyl-4-((6-methylpyridin-3-yl)oxy)phenyl)amino)-5,6-dihydropyrido[4′,3′:4,5]thieno[2,3-d]pyrimidin-7(8H)-yl)-4-morpholinobut-2-en-1-one]	< 100	< 100	> 10	100 to 1000
Cc1ccc(Oc2ccc(Nc3ncnc4sc5c(c34)C(C)CN(C(=O)/C=C/CN(C)C(C)(C)C)C5)cc2C)cn1 (centres unmarked) [Compound 175]	< 100	< 100	> 10	< 100
